“Also recorded” adds a separate entry of the source.
Tests used:
Type in all cases: cell-based
farnesyl transferase = target: T1, farnesyl transferase (Homo sapiens, UniProt P49354+P49356); test: Farnesyl transferase inhibition assay (EGFP-RasF membrane localization by fluorescence microscopy)
T1 construct: endogenous in cells; host or cells: K562 cells transduced with LNC-EGFP-RasF reporter
Protocol: The idea was to target EGFP to the plasma membrane by using a farnesylation signal sequence. […] The last 20 amino acids of c-Ha-Ras provides farnesylation and palmitoylation for targeting the Ras protein to the plasma membrane. We fused the C-terminal membrane targeting signal sequence of the human c-Ha-ras1 (J00277, NCBI) to the C-terminal end of EGFP (Clontech).
Twenty amino acids of the C-terminal end of c-Ha-ras 1 located in exon 4 were added to the C-terminus of the EGFP coding sequence by polymerase chain reaction (PCR) cloning.
The amphotropic packaging cell line PT67 (Clontech) was transfected (Pfx-2, Invitrogen) with pLNC-EGFP-(DEVD)-RasF and selected in 400 μg/ml G418. […] Gene transfer referred to as transduction in K562 and MT4 cells was easily observed by fluorescence microscopy.
(§1) K562 (MT4) cells were separated from PT67-pLNC-EGFP-(DEVD)-RasF and Non transduced K562 (MT4) cells were removed by selection in 400 μg/ml G418. The remaining fluorescent K562 (MT4) cells were directly cloned in 96 well plates by fluorescence activated cell sorting using an automatic cell deposit unit. […] Two weeks later, appropriate clones were selected by visual inspection using a fluorescence microscope and designated K562-LNC-EGFP-RasF or MT4-LNC-EGFP-(DEVD)-RasF. […]
In cells expressing EGFP without a farnesylation signal sequence, fluorescence is observed throughout the cell. […]

[1] = test system: caspase 3 and/or caspase 7; test: Caspase assay (EGFP-DEVD-RasF membrane targeting by fluorescence microscopy); details: MT4-LNC-EGFP-DEVD-RasF cells, 10 μM, 4 h, FIG. 3B
Protocol: For the apoptosis construct, the same primer was used except that a sequence encoding DEVD (i.e. caspase 3 and 7 cleavage site) was included between EGFP and the Ras plasmamembrane targeting signal sequence (SEQ ID NO 4 and SEQ ID NO 5).
(§2) The amphotropic packaging cell line PT67 (Clontech) was transfected (Pfx-2, Invitrogen) with pLNC-EGFP-(DEVD)-RasF and selected in 400 μg/ml G418. In the surviving colonies, transcription occurs from (a) stably integrated plasmid(s) pLNC-EGFP-(DEVD)RasF. The resulting LNC-EGFP-(DEVD)-RasF mRNA is translated into EGFP-(DEVD)-RasF and the neomycin resistance protein and is also packaged into replication incompetent virions. […] Gene transfer referred to as transduction in K562 and MT4 cells was easily observed by fluorescence microscopy.
as §1

MT4-LNC-EGFP-RasF cells = test: Control without DEVD cleavage site (EGFP-RasF membrane targeting by fluorescence microscopy); details: 4 h, FIG. 4B
Protocol: as §2, with “virions. Thus, the PT67-pLNC-EGFP-(DEVD)-RasF constitutively produces viral particles, able to transmit the EGFP-(DEVD)-RasF and the neomycin resistance gene at the same time. These amphotropic virions give the flexibility to rapidly develop novel cell lines stably expressing EGFP-(DEVD)-RasF proteins.” for “virions.”
as §1

caspase 3 = test: Caspase 3 activity with fluorogenic Ac-DEVD-AMC substrate; details: MT4 cells, Ac(N-acetyl)-DEVD-AMC substrate, results not shown

| EGFP membrane localization (farnesyl transferase; K562 LNC-EGFP-RasF cells, 5 μM, FIG. 2) | EGFP compartmentalisation (farnesyl transferase; K562 cells, high enough concentrations (>5 μM)) | SMILES | EGFP membrane targeting [1] | translocation of EGFP (MT4-LNC-EGFP-RasF cells; MT4-LNC-EGFP-RasF cells lacking DEVD site) | cell morphology (MT4-LNC-EGFP-RasF cells; MT4-LNC-EGFP-RasF cells) | caspase 3 activity (caspase 3) |
| --- | --- | --- | --- | --- | --- | --- |
| disruption of membrane localization | almost completely disappears | CSCC[C@H](NC(=O)c1ccc(NC[C@@H](N)CS)cc1-c1ccccc1)C(=O)O [FTI-276] |  |  |  |  |
|  |  | CN[C@@H]1C[C@H]2O[C@@](C)([C@@H]1OC)n1c3ccccc3c3c4c(c5c6ccccc6n2c5c31)C(=O)NC4 [staurosporin] | partially disappears; also recorded: reduced EGFP membrane targeting | no prominent translocation of EGFP occurs; also recorded: did not result in marked translocation of EGFP | affects the cells morphology within hours; also recorded: altered cell morphology | induced caspase 3 activity |

Source: patent US7129036B1, “Reporter molecules and methods for assaying the lipidations status of a cell” (Tibotec BVBA, priority 1999, dated 2006)
